# Measured values reported in patent publication US8653283B2, “Anticancer agents” (The Regents of The University of California, priority 2009, dated 2014).
# Columns and labels:
# HCT-116 cells [1] = assay: Cellular uptake and subcellular localization by fluorescence microscopy; assay type: cell-based, human; conditions: live HCT-116 cells, 10 μM, time lapse over 24 h
# Experimental: HCT-116 cells (ATCC CCL-247) were cultured in Dulbecco's modification of Eagle's medium (DMEM) with 4.5 g L^−1 glucose, […], and 5% heat inactivated fetal calf serum (FCS) in glass-bottom dishes. Fluorescent images were collected on a Leica (Wetzlar, Germany) DMI6000 inverted confocal microscope with a Yokogawa (Tokyo, Japan) spinning disk confocal head, Orca ER High Resolution B&W Cooled CCD camera (6.45 μm/pixel at 1×) (Hamamatsu, Sewickley, Pa.), Plan Apochromat 40×/1.25 na and 63×/1.4 na objective, and a Melles Griot (Carlsbad, Calif.) Argon/Krypton 100 mW air-cooled laser for 488, 568, and 647 nm excitations. Confocal z-stacks were acquired in all experiments. […]
# Cellular uptake and localization of 1 in HCT-116 tumor cells was then evaluated using fluorescence microscopy. […] HCT-116 cells were treated with 10 μM 1 in DMEM containing 10% FCS, 100 U/mL penicillin-G, and 100 μg/mL streptomycin and analyzed by fluorescence microscopy. […] Within 6-12 h, fluorescence from 1 concentrated within vesicles surrounding the nucleus and remained in these structures (FIG. 4b). […]
# The cellular uptake of localization of 1 in HCT-116 tumor cells was then evaluated using fluorescence microscopy. […] HCT-116 cells were treated with 10 μM 1 in DMEM containing 10% FCS, 100 U/mL penicillin-G and 100 μg/mL streptomycin and analyzed by fluorescence microscopy. […]
# [2] = test system: neuroblastoma cells (Neuro2a); assay: Inhibition of mitosis; assay type: cell-based; conditions: by inhibiting the exit from anaphase
# prostate = assay: NCI-60 human tumor cell line screen, single dose; assay type: cell-based; conditions: dosed at 10 μM, single dose NCI-60
# [3] = test system: NCI-60 human tumor cell line; assay: NCI-60 human tumor cell line screen, multiple dose / dose-response; assay type: cell-based
# renal cancers = assay: NCI-60 human tumor cell line screen, single dose; assay type: cell-based; conditions: dosed at 10 μM, single dose NCI-60
# [4] = test system: breast cancer cells (HeLa); assay: Inhibition of mitosis; assay type: cell-based; conditions: by inhibiting the exit from anaphase
# melanoma = assay: NCI-60 human tumor cell line screen, single dose; assay type: cell-based; conditions: dosed at 10 μM, single dose NCI-60
# HCT-116 cells [5] = assay: Cell cycle effects by three-color confocal fluorescence microscopy; assay type: cell-based, human
# Source text: Images in a) and b) depict live cells. c) A confocal fluorescent image indicating the effects of 1 has on the cell structure. Cells treated as in a) were fixed with 0.1% formalin and stained for their DNA content with SYTO-60 (false colored in blue) (Wlodkowic et al., Cytometry A, 73:496-507 (2008)), actin with FITC-phalloidin (green) (Verderame et al., Proc Natl Acad Sci USA, 77:6624-6628 (1980)), and microtubules with BODIPY FL-paclitaxel (red) (Bicamumpaka et al., Int J Mol Med, 2:161-165 (1998)). For each experiment, HCT-116 cells were cultured to 10^6 cells/cm^2 in a 35 mm poly-D-lysine coated glass-bottom dish and treated with 1 mL of 10 μM 1 in Dulbecco's modified essential medium (DMEM) containing 10% fetal bovine serum (FBS), 100 U/mL penicillin-G and 100 μg/mL streptomycin.
# The effects of 1 on the cell cycle were also evaluated. HCT-116 cells cultured in DMEM were treated 1 h before the onset of mitosis with 10 μM 1 in DMEM. After 12 h (several hours after the completion of mitosis), the cells were fixed for 5 min with 0.5% formalin and 0.1% glutaraldehyde in PBS pH 7.2, washed extensively with PBS pH 7.2, treated with a cocktail of fluorescent probes to visualize DNA, actin, and microtubules and examined using three-color confocal fluorescence microscopy. […]
# Bacillus subtilis 6633 = assay: Minimum inhibitory concentration (MIC) assay; assay type: cell-based; conditions: Bacillus subtilis 6633, 37° C. for 18 h, no visible bacterial growth, duplicates
# Experimental: Minimum Inhibitory Concentration (MIC) Assay of Spirohexenolide A (1), using Bacillus subtilis 6633.
# Spirohexenolide A (1) in dimethyl sulfoxide (DMSO) was diluted to 10, 15, 30, 60, 120, 250, 500, and 1000 μg/mL stocks in tryptic soy broth with a final concentration of 1% DMSO. B. subtilis, cultured for 18 h at 37° C. in tryptic soy broth, was inoculated at 1/10000 to a final volume of 200 μL per well on a 96 well plate and then treated with 2 μL of a stock solution of 1 (10, 15, 30, 60, 120, 250, 500, and 1000 μg/mL in tryptic soy broth containing 1% DMSO). […] The compound was tested in duplicates.
# [6] = test system: human colon tumor HCT-116 cell line; conditions: for GI50: HCT-116 cells, MTT assay, in house
# [7] = mouse, in vivo
# [8] = target: T1, human migration inhibitory factor (hMIF) (Homo sapiens, UniProt P14174); assay: Anti-IAF tag immunoprecipitation, LC-MS/MS identification and Western blot; assay type: binding; conditions: HCT-116 cell lysate, ~12 kDa band
# T1 construct: confirmed the presence of hMIF in the immunoprecipitated fraction of HCT-116 cell lysate; endogenous in cells; host or cells: HCT-116 cell lysate
# T1 sequence (P14174 2-115 limits assumed): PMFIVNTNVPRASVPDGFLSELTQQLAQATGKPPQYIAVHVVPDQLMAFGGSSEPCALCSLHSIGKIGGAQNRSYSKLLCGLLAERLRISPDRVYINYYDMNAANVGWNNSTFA
# Source text: A) Anti-IAF immunoprecipitation studies identify a ˜12 kDa band. Lane L1, L2 and L3 depict HCT116 cell lysate, an IAF dye elution (bands correspond to fragments of the anti-IAF mAb) and glycine wash, respectively. The ˜12 kDa band was identified in the glycine wash. B) Trypsin-digest LC-MS/MS analysis identified three peptides that overlapped with the hMIF protein (shown in red). C) Western blot analysis using a mouse anti-MIF mAb confirmed the presence of hMIF in the immunoprecipitated fraction of HCT-116 cell lysate, as well as in E. coli lysates bearing recombinanthMIF. Arrow denotes the position of hMIF. The upper bands arose from the mouse anti-IAF mAb used in this experiment (background).
# Attention was then turned to screening for proteins that bind to the spirohexenolides. Using the affinity properties of the IAF probe 4, we deployed an anti-IAF tag immunoprecipitation protocol to isolate a 12 kDa band (Lane L3 in FIG. 9A). […] Western blot analysis (FIG. 9C) confirmed hMIF the identification of hMIF.
compound,measurement,setting,value
CC1=C[C@]2(C)/C=C(C)/C=C/C[C@@H](OC(=O)CCCn3cc(CNC(=O)Cc4cc(=O)oc5cc(N(C)C)ccc45)nn3)/C=C3C=C/C(=C4\C(=O)O[C@]2(C[C@@H]1C)C4=O)OC/3 [probe 3],cell phenotype after treatment,HCT-116 cells [1],characteristic apoptotic phenotype
spirohexenolide A,inhibition of mitosis,[2],inhibit mitosis
same,inhibition,prostate,85%
same,activity (GI50) by cell line,"[3]; leukemia (CCRF-CEM, MOLT-4, RPMI-8226), lung cancer (HOP-92), colon cancer (SW-629) cell lines",enhanced activity
same,sensitivity in dose-response assays,"[3]; leukemia, renal cancer, and melanoma cell lines",selective sensitivity
same,inhibition,renal cancers,95%
same,inhibition of mitosis,[4],inhibit mitosis
same,inhibition,melanoma,96%
same,effect on the cell cycle,"HCT-116 cells [5]; 10 μM, treated 1 h before onset of mitosis, fixed after 12 h",induced cell cycle arrest during mitosis
same,inhibition of mitosis,"HCT-116 cells [5]; colon cancer cells (HCT111), by inhibiting the exit from anaphase",inhibit mitosis
same,MIC,Bacillus subtilis 6633,12.25 µM
same,IC50,[6],0.5 µM
same,GI50,[6],36 ± 5.1 µM
same,cell phenotype after treatment,HCT-116 cells [1],characteristic apoptotic phenotype
same,single dose producing toxicity,[7],6 to 10 mg/kg
CC1=C[C@]2(C)/C=C(C)/C=C/C[C@@H](OC(=O)CCC(=O)NCCCCCCNC(=O)Cc3cc(=O)oc4cc(N(C)C)ccc34)/C=C3C=C/C(=C4\C(=O)O[C@]2(C[C@@H]1C)C4=O)OC/3 [probe 4],protein isolated by the probe,[8],human migration inhibitory factor (hMIF)
spirohexenolide B,GI50,[6],61.2 ± 7.8 µM
